Laboratory results: ChEMBL document CHEMBL1909046, “DrugMatrix in vitro pharmacology data”

Legend:
[1] = target: T1, B2 bradykinin receptor (Homo sapiens, UniProt P30411); assay type: cell membranes, Membrane; details: chem-1; note: in other assays of this panel Not Active means under 50% inhibition at 10 µM
T1 sequence (P30411 whole entry): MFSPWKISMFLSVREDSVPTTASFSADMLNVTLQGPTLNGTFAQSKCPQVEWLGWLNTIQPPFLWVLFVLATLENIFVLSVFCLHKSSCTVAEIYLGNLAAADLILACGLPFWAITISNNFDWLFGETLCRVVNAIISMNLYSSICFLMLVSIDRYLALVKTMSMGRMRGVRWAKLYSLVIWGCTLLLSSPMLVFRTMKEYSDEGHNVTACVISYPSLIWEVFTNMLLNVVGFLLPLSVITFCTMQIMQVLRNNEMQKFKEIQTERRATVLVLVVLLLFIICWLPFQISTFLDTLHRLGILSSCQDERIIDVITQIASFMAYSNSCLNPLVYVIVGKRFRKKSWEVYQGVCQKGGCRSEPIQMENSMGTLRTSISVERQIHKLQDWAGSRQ

[2] = target: T2, Alpha-1D adrenergic receptor (Homo sapiens, UniProt P25100); assay type: cell membranes, HEK293, Membrane; details: hek293; note: in other assays of this panel Not Active means under 50% inhibition at 10 µM
T2 sequence (P25100 whole entry): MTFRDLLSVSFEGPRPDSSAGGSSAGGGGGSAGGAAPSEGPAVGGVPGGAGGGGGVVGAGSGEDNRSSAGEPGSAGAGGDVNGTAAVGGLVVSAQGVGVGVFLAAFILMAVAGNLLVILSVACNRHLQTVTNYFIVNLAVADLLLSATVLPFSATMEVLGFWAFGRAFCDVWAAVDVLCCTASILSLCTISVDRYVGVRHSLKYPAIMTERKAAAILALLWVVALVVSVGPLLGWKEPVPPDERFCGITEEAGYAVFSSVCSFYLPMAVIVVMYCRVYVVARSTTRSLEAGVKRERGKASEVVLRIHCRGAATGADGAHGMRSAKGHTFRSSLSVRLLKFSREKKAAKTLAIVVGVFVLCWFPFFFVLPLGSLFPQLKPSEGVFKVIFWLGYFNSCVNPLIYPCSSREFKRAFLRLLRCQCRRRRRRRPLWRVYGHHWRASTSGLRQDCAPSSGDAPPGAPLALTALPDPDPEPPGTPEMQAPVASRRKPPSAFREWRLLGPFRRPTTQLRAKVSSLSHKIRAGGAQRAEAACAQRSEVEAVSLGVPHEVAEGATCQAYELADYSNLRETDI

[3] = target: Substance-P receptor (Homo sapiens, UniProt P25103); assay type: cell membranes, Membrane; details: cho; note: in other assays of this panel Not Active means under 50% inhibition at 10 µM
Sequence of Substance-P receptor (P25103 whole entry): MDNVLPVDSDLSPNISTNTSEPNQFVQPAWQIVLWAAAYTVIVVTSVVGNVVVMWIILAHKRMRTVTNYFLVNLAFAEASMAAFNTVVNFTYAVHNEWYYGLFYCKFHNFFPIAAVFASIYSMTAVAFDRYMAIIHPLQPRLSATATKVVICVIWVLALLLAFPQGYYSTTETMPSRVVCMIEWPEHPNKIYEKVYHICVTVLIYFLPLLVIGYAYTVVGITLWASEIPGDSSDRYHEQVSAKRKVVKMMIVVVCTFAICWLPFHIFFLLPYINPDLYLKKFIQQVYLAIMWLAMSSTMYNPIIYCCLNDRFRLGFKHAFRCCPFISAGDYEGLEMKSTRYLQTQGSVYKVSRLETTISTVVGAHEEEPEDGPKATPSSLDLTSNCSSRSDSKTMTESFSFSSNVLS

[4] = DRUGMATRIX: Atrial Natriuretic Factor (ANF) radioligand binding (ligand: [125I] ANF (rat)); assay type: cell membranes, Cavia porcellus, Dunkin-Hartley, Adrenal gland, Membrane; details: Not Active = under 50% inhibition at 10 µM
[5] = target: T3, Alpha-1B adrenergic receptor (Rattus norvegicus, UniProt P15823); assay: DRUGMATRIX: Alpha-1B adrenergic receptor radioligand binding (ligand: prazosin); assay type: cell membranes, Wistar, Liver, Membrane; details: Not Active = under 50% inhibition at 10 µM
T3 sequence (P15823 whole entry): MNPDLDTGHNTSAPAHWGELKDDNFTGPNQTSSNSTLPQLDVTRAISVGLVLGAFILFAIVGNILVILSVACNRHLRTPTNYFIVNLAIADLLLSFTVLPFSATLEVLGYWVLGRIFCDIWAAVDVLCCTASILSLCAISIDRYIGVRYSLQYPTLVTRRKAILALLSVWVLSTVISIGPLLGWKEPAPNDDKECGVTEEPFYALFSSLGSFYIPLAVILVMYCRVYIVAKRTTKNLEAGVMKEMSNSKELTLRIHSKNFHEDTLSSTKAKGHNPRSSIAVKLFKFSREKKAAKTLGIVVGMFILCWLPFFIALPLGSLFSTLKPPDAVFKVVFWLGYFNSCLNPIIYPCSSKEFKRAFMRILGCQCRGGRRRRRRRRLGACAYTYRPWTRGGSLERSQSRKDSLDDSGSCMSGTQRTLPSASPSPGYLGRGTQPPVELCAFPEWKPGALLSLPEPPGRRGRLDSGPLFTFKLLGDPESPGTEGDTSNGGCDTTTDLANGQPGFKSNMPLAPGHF

[6] = target: T4, Alpha-2C adrenergic receptor (Homo sapiens, UniProt P18825); assay: DRUGMATRIX: Adrenergic Alpha-2C radioligand binding (ligand: [3H] MK-912); assay type: cell membranes, Sf9, Membrane; details: sf9
T4 sequence (P18825 whole entry): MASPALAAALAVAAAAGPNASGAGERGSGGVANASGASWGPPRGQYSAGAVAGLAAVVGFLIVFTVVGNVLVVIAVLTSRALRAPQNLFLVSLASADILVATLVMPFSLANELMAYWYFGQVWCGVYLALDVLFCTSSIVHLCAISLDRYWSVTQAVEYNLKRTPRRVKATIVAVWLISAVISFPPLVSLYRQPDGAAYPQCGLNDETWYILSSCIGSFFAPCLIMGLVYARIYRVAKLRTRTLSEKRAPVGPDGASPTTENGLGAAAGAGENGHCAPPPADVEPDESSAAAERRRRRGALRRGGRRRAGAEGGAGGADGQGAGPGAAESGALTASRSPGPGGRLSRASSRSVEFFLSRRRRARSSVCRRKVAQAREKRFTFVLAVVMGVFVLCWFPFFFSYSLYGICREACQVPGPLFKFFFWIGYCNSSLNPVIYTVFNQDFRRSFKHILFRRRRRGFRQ

[7] = target: T5, Neutrophil elastase (Homo sapiens, UniProt P08246); assay type: tissue-based;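 note: inhibition of neutrophil elastase enzyme activity, measured with a p-nitroanilide-linked peptide substrate; in other assays of this panel Not Active means under 50% inhibition at 10 µM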
T5 sequence (P08246 whole entry): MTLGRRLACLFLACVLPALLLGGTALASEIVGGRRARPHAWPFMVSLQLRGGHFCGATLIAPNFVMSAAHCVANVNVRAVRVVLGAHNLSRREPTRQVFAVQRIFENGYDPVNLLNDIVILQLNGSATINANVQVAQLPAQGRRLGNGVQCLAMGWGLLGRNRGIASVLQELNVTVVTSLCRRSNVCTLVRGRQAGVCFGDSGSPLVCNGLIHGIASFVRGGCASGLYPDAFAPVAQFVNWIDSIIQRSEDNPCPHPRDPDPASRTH

CC[C@H](C)C(=O)O[C@H]1C[C@H](O)C=C2C=C[C@H](C)[C@H](CC[C@@H](O)C[C@@H](O)CC(=O)O)[C@H]21 [PRAVASTATIN]
Not Active: IC50 [1] | IC50 [2] | IC50 [3] | IC50 [4] | Ki [4] | IC50 [5] | IC50 [6] | IC50 [7]

CC(C)(Sc1cc(C(C)(C)C)c(O)c(C(C)(C)C)c1)Sc1cc(C(C)(C)C)c(O)c(C(C)(C)C)c1 [PROBUCOL]
Not Active: IC50 [1] | IC50 [2] | IC50 [3] | IC50 [4] | Ki [4] | IC50 [5] | IC50 [6] | IC50 [7]

COBALT(II) ACETYLACETONATE
Not Active: IC50 [1] | Ki [1] | IC50 [2] | Ki [2] | IC50 [3] | Ki [3] | IC50 [4] | Ki [4] | IC50 [5] | Ki [5] | IC50 [6] | Ki [6] | IC50 [7] | Ki [7]

INSULIN HUMAN
Not Active: IC50 [1] | Ki [1] | IC50 [2] | Ki [2] | IC50 [3] | Ki [3] | IC50 [4] | Ki [4] | IC50 [5] | Ki [5] | IC50 [6] | Ki [6] | IC50 [7] | Ki [7]

POLYVINYL ALCOHOL
Not Active: IC50 [1] | Ki [1] | IC50 [2] | Ki [2] | IC50 [3] | Ki [3] | IC50 [4] | Ki [4] | IC50 [5] | Ki [5] | IC50 [6] | Ki [6] | IC50 [7] | Ki [7]
